According to the supplement of paper PMC11061612:

Key:
[1] = system: NCI-H1092 (Small Cell Lung Carcinoma); experiment: Bliss excess, mean over the matrix (fraction); higher = more synergy
In short: (§1)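 Cell lines in DMEM/F12 or RPMI with 10% FBS were plated in 1536-well plates, held 24 hours at 37°C, 5% CO2, then given two-drug dose matrices for 72 hours (DMSO typically 0.2%). Viability was read by CellTiter-Glo 2.0 luminescence and scaled as inhibition from 0 (vehicle wells) to 1 (blank wells). Combination Emax is the second-highest inhibition in the matrix; Bliss excess is observed combination effect minus expected EA + EB − EA·EB, EA and EB being single-agent effects.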

[2] = system: ALL-SIL (T-Lymphoblastic Leukemia); experiment: as above
In short: as §1

[3] = system: HCC2998 (Colorectal Carcinoma); experiment: as above
In short: as §1

Hey (Ovarian Carcinoma) [4] = experiment: as above
In short: as §1

[5] = system: NCI-H2122 (Lung Adenocarcinoma); experiment: as above
In short: as §1

[6] = system: CADO-ES1 (Ewing's Sarcoma); experiment: as above
In short: as §1

[7] = system: NCI-H1092 (Small Cell Lung Carcinoma); experiment: combination Emax (second highest fraction inhibited in the dose matrix, 72 h); higher = more inhibition; extreme values may be limits of the assay
In short: as §1

[8] = system: NCI-H650 (Lung Adenocarcinoma); experiment: as above
In short: as §1

[9] = system: HCC2998 (Colorectal Carcinoma); experiment: as above
In short: as §1

[10] = system: HCC1937 (Breast Carcinoma); experiment: as above
In short: as §1

[11] = system: EJM (Plasma Cell Myeloma); experiment: as above
In short: as §1

[12] = system: HCC1500 (Breast Carcinoma); experiment: as above
In short: as §1

[13] = system: DU-145 (Prostate Carcinoma); experiment: as above
In short: as §1

EW-1 (Ewing's Sarcoma) = experiment: as above
In short: as §1

[14] = system: LC-1-sq (Squamous Cell Lung Carcinoma); experiment: as above
In short: as §1

Hey (Ovarian Carcinoma) [15] = experiment: as above
In short: as §1

[16] = system: SK-LU-1 (Lung Adenocarcinoma); experiment: as above
In short: as §1

[17] = system: CADO-ES1 (Ewing's Sarcoma); experiment: as above
In short: as §1

[18] = system: OACM5-1 (Esophageal Adenocarcinoma); experiment: as above
In short: as §1

[19] = system: KOPN-8 (B-Lymphoblastic Leukemia); experiment: as above
In short: as §1
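Throughout, for Bliss excess, mean over the matrix: after 72 h of two-drug dosing.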

CN(CCO)CC[C@H](CSc1ccccc1)Nc1ccc(S(=O)(=O)NC(=O)c2ccc(N3CCC([C@@H](O)c4ccccc4-c4ccc(Cl)cc4)CC3)cc2)cc1S(=O)(=O)C(F)(F)F [AZD4320] + C1CN(CCC1(C(=O)N[C@@H](CCO)C2=CC=C(C=C2)Cl)N)C3=NC=NC4=C3C=CN4 [Capivasertib] (first compound max 1 µM, 7x7, partner max 3 µM)
Bliss excess [1]: -0.0476
Bliss excess [2]: -0.0464
Bliss excess [3]: -0.0128
Bliss excess (Hey (Ovarian Carcinoma) [4]): -0.0385
Bliss excess [5]: -0.0234
Bliss excess [6]: -0.0387
combination Emax [7]: 0.813
combination Emax [8]: 0.134
combination Emax [9]: 0.881
combination Emax [10]: 0.434
combination Emax [11]: 0.525
combination Emax [12]: 0.993
combination Emax [13]: 0.0863
combination Emax (EW-1 (Ewing's Sarcoma)): 0.67
combination Emax [14]: 0.134
combination Emax (Hey (Ovarian Carcinoma) [15]): 0.106
combination Emax [16]: 0.267
combination Emax [17]: 0.613
combination Emax [18]: 0.617
combination Emax [19]: 0.883

CN(CCO)CC[C@H](CSc1ccccc1)Nc1ccc(S(=O)(=O)NC(=O)c2ccc(N3CCC([C@@H](O)c4ccccc4-c4ccc(Cl)cc4)CC3)cc2)cc1S(=O)(=O)C(F)(F)F [AZD4320] + CCN(CCO)CCCOc1ccc2c(Nc3cc(CC(=O)Nc4cccc(F)c4)[nH]n3)ncnc2c1 [AZD2811] (first compound max 1 µM, 7x7, partner max 1 µM)
Bliss excess [1]: 0.0193
Bliss excess [2]: -0.0124
Bliss excess [3]: 0.103
Bliss excess (Hey (Ovarian Carcinoma) [4]): -0.0022
Bliss excess [5]: 0.0001
Bliss excess [6]: -0.0732
combination Emax [7]: 0.866
combination Emax [8]: 0.157
combination Emax [9]: 0.753
combination Emax [10]: 0.489
combination Emax [11]: 0.406
combination Emax [12]: 0.997
combination Emax (EW-1 (Ewing's Sarcoma)): 0.863
combination Emax [14]: 0.264
combination Emax (Hey (Ovarian Carcinoma) [15]): 0.254
combination Emax [16]: 0.281
combination Emax [17]: 0.668
combination Emax [18]: 0.398
combination Emax [19]: 0.963

CN(CCO)CC[C@H](CSc1ccccc1)Nc1ccc(S(=O)(=O)NC(=O)c2ccc(N3CCC([C@@H](O)c4ccccc4-c4ccc(Cl)cc4)CC3)cc2)cc1S(=O)(=O)C(F)(F)F [AZD4320] + C[C@@H]1COCCN1C2=NC(=NC(=C2)C3(CC3)[S@](=N)(=O)C)C4=C5C=CNC5=NC=C4 [AZD6738] (first compound max 1 µM, 7x7, partner max 10 µM)
Bliss excess [1]: -0.0167
Bliss excess [2]: 0.0038
Bliss excess [3]: -0.0283
Bliss excess (Hey (Ovarian Carcinoma) [4]): -0.0697
Bliss excess [5]: -0.0269
Bliss excess [6]: -0.0031
combination Emax [7]: 0.915
combination Emax [8]: 0.415
combination Emax [9]: 0.968
combination Emax [10]: 0.761
combination Emax [11]: 0.929
combination Emax [12]: 1
combination Emax [13]: 0.6
combination Emax (EW-1 (Ewing's Sarcoma)): 0.997
combination Emax [14]: 0.845
combination Emax (Hey (Ovarian Carcinoma) [15]): 0.869
combination Emax [16]: 0.663
combination Emax [17]: 0.939
combination Emax [18]: 0.663
combination Emax [19]: 0.995

CN(CCO)CC[C@H](CSc1ccccc1)Nc1ccc(S(=O)(=O)NC(=O)c2ccc(N3CCC([C@@H](O)c4ccccc4-c4ccc(Cl)cc4)CC3)cc2)cc1S(=O)(=O)C(F)(F)F [AZD4320] + Cc1cc2ncnn2cc1Nc1ncc2c(n1)n(C1CCOCC1)c(=O)n2C [AZD7648] (first compound max 1 µM, 7x7, partner max 10 µM)
Bliss excess [1]: 0.005
Bliss excess [2]: -0.0083
Bliss excess [3]: -0.0035
Bliss excess (Hey (Ovarian Carcinoma) [4]): -0.0728
Bliss excess [5]: -0.0074
Bliss excess [6]: -0.0361
combination Emax [7]: 0.855
combination Emax [8]: 0.134
combination Emax [9]: 0.492
combination Emax [10]: 0.29
combination Emax [11]: 0.382
combination Emax [12]: 0.998
combination Emax (EW-1 (Ewing's Sarcoma)): 0.745
combination Emax [14]: 0.158
combination Emax (Hey (Ovarian Carcinoma) [15]): 0.247
combination Emax [16]: 0.421
combination Emax [17]: 0.608
combination Emax [18]: 0.577
combination Emax [19]: 0.88

Cc1c2c(nn1C)CSCc1cc(n(C)n1)CSc1cc(c3ccccc3c1)OCCCc1c(C(=O)O)n(C)c3c-2c(Cl)ccc13 [AZD5991] + Cn1cnc2c(F)c(Nc3ccc(Br)cc3Cl)c(C(=O)NOCCO)cc21 [Selumetinib] (first compound max 1 µM, 7x7, partner max 3 µM)
Bliss excess [1]: -0.03
Bliss excess [2]: 0.0068
Bliss excess [3]: 0.0417
Bliss excess (Hey (Ovarian Carcinoma) [4]): -0.0033
Bliss excess [5]: 0.028
Bliss excess [6]: -0.0208
combination Emax [7]: 0.608
combination Emax [8]: 0.432
combination Emax [9]: 0.998
combination Emax [10]: 0.464
combination Emax [11]: 0.983
combination Emax [12]: 0.41
combination Emax [13]: 0.221
combination Emax (EW-1 (Ewing's Sarcoma)): 0.273
combination Emax [14]: 0.311
combination Emax (Hey (Ovarian Carcinoma) [15]): 0.563
combination Emax [16]: 0.476
combination Emax [17]: 0.874
combination Emax [18]: 0.94
combination Emax [19]: 1

Cc1cc2ncnn2cc1Nc1ncc2c(n1)n(C1CCOCC1)c(=O)n2C [AZD7648] + O=C(c1cc(Cc2n[nH]c(=O)c3ccccc23)ccc1F)N1CCN(C(=O)C2CC2)CC1 [Olaparib] (first compound max 10 µM, 7x7, partner max 10 µM)
Bliss excess [1]: -0.025
Bliss excess [2]: -0.0083
Bliss excess [3]: -0.023
Bliss excess (Hey (Ovarian Carcinoma) [4]): -0.0088
Bliss excess [5]: -0.0124
Bliss excess [6]: 0.0086
combination Emax [7]: 0.111
combination Emax [8]: 0.14
combination Emax [9]: 0.321
combination Emax [10]: 0.154
combination Emax [11]: 0.2
combination Emax [12]: 0.269
combination Emax [13]: 0.171
combination Emax (EW-1 (Ewing's Sarcoma)): 0.732
combination Emax [14]: 0.17
combination Emax (Hey (Ovarian Carcinoma) [15]): 0.266
combination Emax [16]: 0.329
combination Emax [17]: 0.548
combination Emax [18]: 0.267
combination Emax [19]: 0.68

Cc1nc(Nc2ncc(C(=O)Nc3c(C)cccc3Cl)s2)cc(N2CCN(CCO)CC2)n1 [Dasatinib] + CC(=O)Nc1cccc(-n2c(=O)n(C3CC3)c(=O)c3c(Nc4ccc(I)cc4F)n(C)c(=O)c(C)c32)c1 [Trametinib] (first compound max 2 µM, 7x7, partner max 1 µM)
Bliss excess [1]: -0.0494
Bliss excess [2]: 0.0316
Bliss excess [3]: 0.111
Bliss excess (Hey (Ovarian Carcinoma) [4]): 0.001
Bliss excess [5]: 0.0119
Bliss excess [6]: -0.0435
combination Emax [7]: 0.125
combination Emax [8]: 0.747
combination Emax [9]: 1
combination Emax [10]: 0.5
combination Emax [11]: 0.153
combination Emax [12]: 0.172
combination Emax [13]: 0.457
combination Emax (EW-1 (Ewing's Sarcoma)): 0.153
combination Emax [14]: 0.166
combination Emax (Hey (Ovarian Carcinoma) [15]): 0.858
combination Emax [16]: 0.511
combination Emax [17]: 0.151
combination Emax [18]: 0.417
combination Emax [19]: 0.545

COc1cc2ncnc(Nc3ccc(F)c(Cl)c3)c2cc1OCCCN1CCOCC1 [Gefitinib] + CC(C)n1c(=O)n(C)c2cnc3cc(F)c(-c4ccc(OCCCN5CCCCC5)nc4)cc3c21 [AZD1390] (first compound max 10 µM, 7x7, partner max 0.3 µM)
Bliss excess [1]: -0.0528
Bliss excess [2]: -0.0699
Bliss excess [3]: -0.0541
Bliss excess (Hey (Ovarian Carcinoma) [4]): -0.0573
Bliss excess [5]: -0.0508
Bliss excess [6]: -0.0634
combination Emax [7]: 0.0586
combination Emax [8]: 0.106
combination Emax [9]: 0.105
combination Emax [10]: 0.272
combination Emax [11]: 0.133
combination Emax [12]: 0.113
combination Emax [13]: 0.167
combination Emax (EW-1 (Ewing's Sarcoma)): 0.344
combination Emax [14]: 0.265
combination Emax (Hey (Ovarian Carcinoma) [15]): 0.0522
combination Emax [16]: 0.245
combination Emax [17]: 0.123
combination Emax [18]: 0.191
combination Emax [19]: 0.241

C[C@@H](c1ccc2nccn2c1)n1nnc2ncc(-c3cnn(C)c3)nc21 [Savolitinib] + CC1(C)CCC(CN2CCN(c3ccc(C(=O)NS(=O)(=O)c4ccc(NCC5CCOCC5)c([N+](=O)[O-])c4)c(Oc4cnc5[nH]ccc5c4)c3)CC2)=C(c2ccc(Cl)cc2)C1 [Venetoclax] (first compound max 1 µM, 7x7, partner max 1 µM)
Bliss excess [1]: -0.0916
Bliss excess [2]: -0.0072
Bliss excess [3]: -0.0866
Bliss excess (Hey (Ovarian Carcinoma) [4]): -0.0651
Bliss excess [5]: -0.0559
Bliss excess [6]: -0.0549
combination Emax [7]: 0.248
combination Emax [8]: 0.0996
combination Emax [9]: 0.105
combination Emax [10]: 0.165
combination Emax [11]: 0.232
combination Emax [12]: 0.629
combination Emax [13]: 0.101
combination Emax (EW-1 (Ewing's Sarcoma)): 0.112
combination Emax [14]: 0.116
combination Emax (Hey (Ovarian Carcinoma) [15]): 0.0566
combination Emax [16]: 0.273
combination Emax [17]: 0.695
combination Emax [18]: 0.166
combination Emax [19]: 0.743

C[C@@H](c1ccc2nccn2c1)n1nnc2ncc(-c3cnn(C)c3)nc21 [Savolitinib] + Cc1c2c(nn1C)CSCc1cc(n(C)n1)CSc1cc(c3ccccc3c1)OCCCc1c(C(=O)O)n(C)c3c-2c(Cl)ccc13 [AZD5991] (first compound max 1 µM, 7x7, partner max 1 µM)
Bliss excess [1]: -0.0875
Bliss excess [2]: -0.0355
Bliss excess [3]: -0.0463
Bliss excess (Hey (Ovarian Carcinoma) [4]): -0.0321
Bliss excess [5]: -0.0513
Bliss excess [6]: 0.0151
combination Emax [7]: 0.46
combination Emax [8]: 0.2
combination Emax [9]: 0.454
combination Emax [10]: 0.182
combination Emax [11]: 0.232
combination Emax [12]: 0.428
combination Emax [13]: 0.132
combination Emax (EW-1 (Ewing's Sarcoma)): 0.2
combination Emax [14]: 0.278
combination Emax (Hey (Ovarian Carcinoma) [15]): 0.127
combination Emax [16]: 0.329
combination Emax [17]: 0.346
combination Emax [18]: 0.896
combination Emax [19]: 0.844
